Active and inactive are the calls of the source. The calls are words filed in the database; no cut-off is given here.
Columns and labels:
[1] = target: T1, Glycogen phosphorylase, muscle form (Oryctolagus cuniculus, UniProt P00489); experiment: Inhibition of rabbit muscle glycogen phosphorylase assessed as release of phosphate from glucose 1 phosphate
T1 sequence (P00489 whole entry): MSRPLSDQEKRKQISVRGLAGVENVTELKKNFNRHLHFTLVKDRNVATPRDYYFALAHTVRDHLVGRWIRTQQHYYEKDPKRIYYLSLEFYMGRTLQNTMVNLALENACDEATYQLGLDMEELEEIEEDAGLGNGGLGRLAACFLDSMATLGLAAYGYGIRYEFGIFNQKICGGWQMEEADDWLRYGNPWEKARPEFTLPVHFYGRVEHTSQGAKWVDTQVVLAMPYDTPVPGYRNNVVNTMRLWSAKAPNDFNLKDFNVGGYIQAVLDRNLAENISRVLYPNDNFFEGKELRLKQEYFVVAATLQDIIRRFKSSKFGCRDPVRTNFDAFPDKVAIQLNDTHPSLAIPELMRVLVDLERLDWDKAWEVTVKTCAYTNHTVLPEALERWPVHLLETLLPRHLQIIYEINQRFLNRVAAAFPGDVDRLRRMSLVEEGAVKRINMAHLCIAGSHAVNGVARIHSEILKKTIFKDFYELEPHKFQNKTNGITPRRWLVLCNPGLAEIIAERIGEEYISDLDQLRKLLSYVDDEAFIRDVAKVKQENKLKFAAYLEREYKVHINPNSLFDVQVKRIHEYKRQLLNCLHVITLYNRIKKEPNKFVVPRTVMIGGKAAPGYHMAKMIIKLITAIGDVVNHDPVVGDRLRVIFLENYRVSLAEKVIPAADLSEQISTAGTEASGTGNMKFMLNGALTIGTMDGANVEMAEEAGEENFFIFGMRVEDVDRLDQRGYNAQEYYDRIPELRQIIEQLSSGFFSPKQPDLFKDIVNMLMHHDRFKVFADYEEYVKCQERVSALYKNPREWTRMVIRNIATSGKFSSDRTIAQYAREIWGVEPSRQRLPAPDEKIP

[2] = target: T2, Glycogen phosphorylase, muscle form (Oryctolagus cuniculus) (UniProt P00489); experiment: Inhibition of rabbit glycogen phosphorylase assessed as release of phosphate from glucose 1 phosphate at 22 mM
T2 sequence (whole entry): T1 sequence (P00489 whole entry)

[3] = target: T2, Glycogen phosphorylase, muscle form (Oryctolagus cuniculus); experiment: Inhibition of rabbit muscle glycogen phosphorylase assessed as release of phosphate from glucose 1 phosphate at 0.222 to 22 mM
[4] = target: T2, Glycogen phosphorylase, muscle form (Oryctolagus cuniculus); experiment: Inhibition of rabbit glycogen phosphorylase assessed as release of phosphate from glucose 1 phosphate at 3 mM
[5] = target: T2, Glycogen phosphorylase, muscle form (Oryctolagus cuniculus); experiment: Inhibition of rabbit glycogen phosphorylase assessed as release of phosphate from glucose 1 phosphate at <=1.4 to 3 mM

| SMILES | Activity [3] | other results |
| --- | --- | --- |
| O=C(O)c1ccc2c3c1C(=O)N(c1ccccc1)C3=CCC2 | – | IC50 [1]: 0.8 mM; inhibition [2]: 46% |
| CC1(C)CCC(=O)c2c1ccc(C(=O)O)c2C(=O)O | inactive | – |
| CC1(C)C=CC(=O)c2c1ccc1c2C(O)OC1=O (stereo not drawn) | inactive | – |
| COC1OC(=O)c2ccc3c(c21)C(=O)C=CC3(C)C (stereo not drawn) | – | inhibition [4]: 15% |
| O=C1OC(=O)c2c1ccc1c2C(=O)CCC1 | inactive | – |
| CCCCCSC(=O)c1c(C(=O)O)ccc2c1C(=O)CCC2 | – | IC50 [1]: 1.3 mM; inhibition [2]: 55% |
| CC1(C)CCC(=O)c2c1ccc1c2C(O)OC1=O (stereo not drawn) | inactive | Activity [5]: inactive |
| CC1(C)c2ccc3c(c2C(=O)[C@@H]2O[C@@H]21)[C@H](O)OC3=O (racemic) | inactive | Activity [5]: inactive |
| O=C(O)c1ccc2c(c1C(=O)NCc1ccccc1)C(=O)CCC2 | – | IC50 [1]: 11.7 mM; inhibition [2]: 89% |
| CO[C@@H]1OC(=O)c2ccc3c(c21)C(=O)[C@@H]1O[C@@H]1C3(C)C (racemic) | inactive | Activity [5]: inactive |
| O=C(O)c1ccc2c3c1C(=O)N(Cc1ccccc1)C3(O)CCC2 (stereo not drawn) | – | IC50 [1]: 1.2 mM; inhibition [2]: 65% |
| CC1(C)C=CC(=O)c2c1ccc(C(=O)O)c2C(=O)O | inactive | – |
| O=C(O)c1ccc2c3c1C(=O)N(c1ccccc1)C3(O)CCC2 (stereo not drawn) | inactive | – |
| O=C(O)c1ccc2c(c1C(=O)N1CCOCC1)C(=O)CCC2 | inactive | – |
| O=C(O)c1ccc2c3c1C(=O)N(Cc1ccccc1)C3=CCC2 | – | IC50 [1]: 1.1 mM; inhibition [2]: 46% |

The next lines start with results.

| Activity [3] | SMILES | other results |
| --- | --- | --- |
| inactive | COC(=O)c1ccc2c(c1C(=O)OC)C(=O)CCC2(C)C | – |
| inactive | O=C(O)c1ccc2c(c1C(=O)O)C(=O)CCC2 | – |
| inactive | CC(C)OC(=O)c1c(C(=O)O)ccc2c1C(=O)CCC2 | – |
| inactive | COC(=O)c1ccc2c(c1C(=O)OC)C(=O)C(Br)CC2(C)C (stereo not drawn) | – |
| inactive | COC(=O)c1ccc2c(c1C(=O)OC)C(=O)C=CC2(C)C | – |
| inactive | COC(=O)c1c(C(=O)O)ccc2c1C(=O)CCC2 | – |
| inactive | CCN(CC)C(=O)c1c(C(=O)O)ccc2c1C(=O)CCC2 | – |
| inactive | O=C(O)c1ccc2c(c1C(=O)Nc1ccccc1)C(=O)CCC2 | – |
| inactive | COC(=O)c1ccc2c(c1C(=O)OC)C(=O)CCC2 | – |
| inactive | COC(=O)c1ccc2c(c1C(=O)OC)C(=O)[C@@H]1O[C@@H]1C2(C)C (racemic) | – |

Reference: ChEMBL document CHEMBL1150399, “Evaluation of novel hyphodermin derivatives as glycogen phosphorylase a inhibitors” (Bioorg Med Chem, 2008)
